One data set concerns Canidae. As to conditions: subchronic; duration: 90 days; oral; Dog Other; body weight.
A further data set concerns Daphnia magna. To be noted: chronic/long-term; duration: 21 days; reproduction.
Another data set deals with Lepomis macrochirus. As to conditions: chronic/long-term; duration: 28 days; body weight.
Another data set deals with Oryctolagus sp. To be noted: developmental; development.
In another data set the test system is Tagia sp. To be noted: acute; duration: 14 days; mortality.
The test system of another data set is Typhlodromus pyri. The data set is described as follows: LR50; higher = less toxic. As to conditions: not reported; mortality.
Setting [1] is: reproduction developmental, reproduction.

SMILES strings stand for the structures.

As for `CC(C)C(O)(c1ccc(OC(F)(F)F)cc1)c1cncnc1` (configuration not stated) [Flurprimidol], the NOAEL is 1.5 mg/kg-day in the data set on Canidae; 9 mg/kg-day in the data set on Oryctolagus sp.; 10 mg/kg-day in the data set with Rattus norvegicus (developmental, development); 1.8 mg/kg-day with Rattus norvegicus (setting [1]); 1.96 mg/kg-day in the data set on Rattus norvegicus (subchronic, duration: 90 days, oral, F, organ weight). The results for the NOEC in the data set with Daphnia magna, with Lepomis macrochirus and in the data set with Tagia sp. were 1.7 mg/L, 0.42 mg/L and 62.6 mg/kg, respectively. The same molecule returned an LOAEL in the data set on Rattus norvegicus (chronic, duration: 2 years, organ weight) of 1 mg/kg-day. Besides, the NOEL was 1.8 mg/kg-day in the data set on Rattus norvegicus (setting [1]) and 1.62 mg/kg-day with Rattus norvegicus (short-term, oral, diet, body weight). The LR50 with Typhlodromus pyri is greater than 29.6 g/ha.

As a reminder, the NOAEL is the highest dose or exposure tested at which no adverse effect was seen. As usually defined, the LOAEL is the lowest dose or exposure tested at which an adverse effect was seen.

The values are drawn from EPA's ToxValDB 9.5 (doi:10.2903/j.efsa.2008.151r).
